Legend:
Conditions in all cases: compound 10.0 µM
[1] = system: ABL1 (human), P00519 [M351T]
EGFR (human) = EGFR (human) (UniProt P00533)
[2] = system: EGFR (human), P00533 [752-759 del]
FRK (human) = FRK (human) (UniProt P42685)
[3] = system: KIT (human), P10721 [D816V]
MAPK15 (human) = MAPK15 (human) (UniProt Q8TD08)
MYLK3 (human) = MYLK3 (human) (UniProt Q32MK0)
NTRK3 (human) = NTRK3 (human) (UniProt Q16288)
PAK2 (human) = PAK2 (human) (UniProt Q13177)
[4] = system: PIK3CA (human), P42336 [C420R]
[5] = system: PIK3CA (human), P42336 [E542K]
[6] = system: PIK3CA (human), P42336 [I800L]
RPS6KA5 KD2 (human) = RPS6KA5 KD2 (human) (UniProt O75582)
TIE1 (human) = TIE1 (human) (UniProt P35590)
TIE1 (human), sequence (P35590 whole entry, looked up): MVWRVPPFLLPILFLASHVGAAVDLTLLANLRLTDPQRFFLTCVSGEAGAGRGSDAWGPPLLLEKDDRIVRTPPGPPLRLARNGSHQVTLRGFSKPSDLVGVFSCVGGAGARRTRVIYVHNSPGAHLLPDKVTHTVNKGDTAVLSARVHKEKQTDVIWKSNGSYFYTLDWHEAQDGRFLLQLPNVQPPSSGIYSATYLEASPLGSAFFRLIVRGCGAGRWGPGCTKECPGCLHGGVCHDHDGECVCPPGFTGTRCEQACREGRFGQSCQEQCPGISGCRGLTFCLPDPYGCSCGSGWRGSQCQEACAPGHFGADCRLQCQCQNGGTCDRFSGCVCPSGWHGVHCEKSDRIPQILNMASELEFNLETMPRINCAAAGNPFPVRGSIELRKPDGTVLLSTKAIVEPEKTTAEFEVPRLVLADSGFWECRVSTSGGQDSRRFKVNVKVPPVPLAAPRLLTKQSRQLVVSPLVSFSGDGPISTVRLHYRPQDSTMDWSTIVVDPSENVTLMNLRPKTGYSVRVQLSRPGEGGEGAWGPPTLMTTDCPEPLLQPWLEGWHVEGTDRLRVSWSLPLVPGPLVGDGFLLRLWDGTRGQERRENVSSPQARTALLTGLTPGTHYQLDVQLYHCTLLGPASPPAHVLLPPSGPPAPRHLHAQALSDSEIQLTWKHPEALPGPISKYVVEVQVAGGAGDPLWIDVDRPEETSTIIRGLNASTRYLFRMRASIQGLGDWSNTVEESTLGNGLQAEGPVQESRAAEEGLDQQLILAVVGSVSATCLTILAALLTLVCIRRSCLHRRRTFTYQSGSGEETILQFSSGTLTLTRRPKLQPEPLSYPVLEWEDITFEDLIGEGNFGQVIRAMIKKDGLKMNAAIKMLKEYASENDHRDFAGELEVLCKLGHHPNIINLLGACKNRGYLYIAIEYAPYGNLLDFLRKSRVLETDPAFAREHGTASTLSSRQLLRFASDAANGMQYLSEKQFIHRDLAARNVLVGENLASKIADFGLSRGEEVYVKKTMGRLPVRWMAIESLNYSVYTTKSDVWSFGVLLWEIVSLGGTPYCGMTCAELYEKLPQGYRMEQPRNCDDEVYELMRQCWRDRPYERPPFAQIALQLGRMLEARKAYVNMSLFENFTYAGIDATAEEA

MAPK15 (human), sequence (Q8TD08 whole entry, looked up): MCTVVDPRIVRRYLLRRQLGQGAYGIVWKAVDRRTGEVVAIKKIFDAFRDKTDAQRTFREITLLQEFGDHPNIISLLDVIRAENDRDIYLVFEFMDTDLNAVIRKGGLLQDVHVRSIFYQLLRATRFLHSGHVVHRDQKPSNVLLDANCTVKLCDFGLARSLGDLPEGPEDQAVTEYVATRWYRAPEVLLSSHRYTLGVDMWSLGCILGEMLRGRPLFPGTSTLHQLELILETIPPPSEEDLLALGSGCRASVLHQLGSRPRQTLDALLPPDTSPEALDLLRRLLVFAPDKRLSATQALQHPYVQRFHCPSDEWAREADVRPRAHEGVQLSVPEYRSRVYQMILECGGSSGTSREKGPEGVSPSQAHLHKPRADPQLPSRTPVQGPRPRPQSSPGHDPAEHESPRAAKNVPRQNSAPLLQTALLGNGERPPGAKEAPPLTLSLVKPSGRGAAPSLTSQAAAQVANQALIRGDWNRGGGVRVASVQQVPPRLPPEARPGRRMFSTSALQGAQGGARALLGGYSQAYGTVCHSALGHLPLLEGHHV
MYLK3 (human), sequence (Q32MK0 whole entry, looked up): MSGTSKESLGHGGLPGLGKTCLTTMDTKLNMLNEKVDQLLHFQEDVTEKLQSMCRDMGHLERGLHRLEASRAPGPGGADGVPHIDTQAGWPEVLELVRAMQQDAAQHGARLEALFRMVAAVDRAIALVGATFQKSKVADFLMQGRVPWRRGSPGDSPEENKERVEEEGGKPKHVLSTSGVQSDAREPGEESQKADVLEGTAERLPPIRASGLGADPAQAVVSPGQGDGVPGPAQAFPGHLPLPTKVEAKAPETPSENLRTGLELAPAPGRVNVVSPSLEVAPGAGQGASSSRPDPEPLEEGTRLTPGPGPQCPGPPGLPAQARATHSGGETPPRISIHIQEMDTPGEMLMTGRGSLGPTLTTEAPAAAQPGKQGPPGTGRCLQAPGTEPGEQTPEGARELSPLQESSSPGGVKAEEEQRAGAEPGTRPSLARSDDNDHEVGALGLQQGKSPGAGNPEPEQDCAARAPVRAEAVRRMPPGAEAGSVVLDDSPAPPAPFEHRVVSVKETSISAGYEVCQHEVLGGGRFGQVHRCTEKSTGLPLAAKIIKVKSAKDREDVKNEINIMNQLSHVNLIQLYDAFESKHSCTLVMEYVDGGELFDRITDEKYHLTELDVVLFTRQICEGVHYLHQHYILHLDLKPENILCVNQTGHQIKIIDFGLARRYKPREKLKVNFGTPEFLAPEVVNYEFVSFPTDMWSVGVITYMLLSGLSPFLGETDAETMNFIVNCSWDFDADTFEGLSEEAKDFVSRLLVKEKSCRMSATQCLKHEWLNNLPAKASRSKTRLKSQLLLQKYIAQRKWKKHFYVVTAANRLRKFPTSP
PIK3CA (human), P42336 [C420R], sequence (P42336 whole entry C420R, looked up): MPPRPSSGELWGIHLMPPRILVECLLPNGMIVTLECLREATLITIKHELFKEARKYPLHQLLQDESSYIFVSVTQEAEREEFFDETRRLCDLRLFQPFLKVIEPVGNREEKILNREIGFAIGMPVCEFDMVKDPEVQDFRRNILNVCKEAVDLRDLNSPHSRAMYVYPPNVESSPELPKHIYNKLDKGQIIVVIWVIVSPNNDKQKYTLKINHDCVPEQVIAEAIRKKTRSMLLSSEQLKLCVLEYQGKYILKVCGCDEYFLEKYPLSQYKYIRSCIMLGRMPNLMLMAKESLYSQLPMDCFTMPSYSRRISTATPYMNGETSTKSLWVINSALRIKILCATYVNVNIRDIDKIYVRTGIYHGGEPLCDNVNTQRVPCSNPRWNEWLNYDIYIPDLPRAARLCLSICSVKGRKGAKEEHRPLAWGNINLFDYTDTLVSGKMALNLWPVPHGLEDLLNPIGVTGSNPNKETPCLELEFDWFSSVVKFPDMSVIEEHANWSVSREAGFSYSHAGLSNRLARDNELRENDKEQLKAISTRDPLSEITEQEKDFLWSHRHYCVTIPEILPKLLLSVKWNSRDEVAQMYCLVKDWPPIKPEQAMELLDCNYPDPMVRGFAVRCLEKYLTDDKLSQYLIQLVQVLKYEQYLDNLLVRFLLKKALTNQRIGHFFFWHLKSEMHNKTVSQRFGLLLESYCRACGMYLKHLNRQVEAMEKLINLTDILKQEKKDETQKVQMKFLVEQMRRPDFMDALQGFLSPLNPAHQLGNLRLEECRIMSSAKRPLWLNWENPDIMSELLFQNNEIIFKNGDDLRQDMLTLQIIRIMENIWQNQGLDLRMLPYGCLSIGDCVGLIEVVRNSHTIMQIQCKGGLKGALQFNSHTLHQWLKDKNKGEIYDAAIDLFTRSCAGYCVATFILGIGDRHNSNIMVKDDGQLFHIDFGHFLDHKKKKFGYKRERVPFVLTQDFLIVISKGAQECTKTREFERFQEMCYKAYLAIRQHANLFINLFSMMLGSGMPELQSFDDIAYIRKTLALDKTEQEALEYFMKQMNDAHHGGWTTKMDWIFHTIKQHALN
RPS6KA5 KD2 (human), sequence (O75582 whole entry, looked up): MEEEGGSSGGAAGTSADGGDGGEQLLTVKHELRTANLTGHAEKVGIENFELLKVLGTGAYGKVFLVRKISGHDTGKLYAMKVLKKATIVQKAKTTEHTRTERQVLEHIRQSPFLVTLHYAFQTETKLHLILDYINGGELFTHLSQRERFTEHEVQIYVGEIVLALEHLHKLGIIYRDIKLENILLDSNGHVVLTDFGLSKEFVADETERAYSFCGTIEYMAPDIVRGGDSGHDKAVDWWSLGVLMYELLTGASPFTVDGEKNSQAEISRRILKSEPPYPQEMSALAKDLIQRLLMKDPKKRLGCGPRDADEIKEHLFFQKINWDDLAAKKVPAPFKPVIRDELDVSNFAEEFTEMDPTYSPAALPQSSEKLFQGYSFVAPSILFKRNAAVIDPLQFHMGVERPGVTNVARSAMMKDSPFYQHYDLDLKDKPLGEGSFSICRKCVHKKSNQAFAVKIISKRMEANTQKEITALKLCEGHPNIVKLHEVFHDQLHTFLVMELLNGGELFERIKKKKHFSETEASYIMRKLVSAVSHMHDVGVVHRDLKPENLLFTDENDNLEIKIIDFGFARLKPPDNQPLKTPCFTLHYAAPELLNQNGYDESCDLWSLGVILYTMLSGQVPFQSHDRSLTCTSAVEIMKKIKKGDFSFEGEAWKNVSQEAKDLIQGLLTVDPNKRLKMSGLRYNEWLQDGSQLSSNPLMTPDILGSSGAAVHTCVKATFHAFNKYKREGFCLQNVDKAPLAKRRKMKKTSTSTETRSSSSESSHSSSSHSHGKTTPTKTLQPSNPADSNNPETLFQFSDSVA
PIK3CA (human), P42336 [I800L], sequence (P42336 whole entry I800L, looked up): as the sequence (P42336 whole entry C420R, looked up) above, with R420C, I800L counted along it
FRK (human), sequence (P42685 whole entry, looked up): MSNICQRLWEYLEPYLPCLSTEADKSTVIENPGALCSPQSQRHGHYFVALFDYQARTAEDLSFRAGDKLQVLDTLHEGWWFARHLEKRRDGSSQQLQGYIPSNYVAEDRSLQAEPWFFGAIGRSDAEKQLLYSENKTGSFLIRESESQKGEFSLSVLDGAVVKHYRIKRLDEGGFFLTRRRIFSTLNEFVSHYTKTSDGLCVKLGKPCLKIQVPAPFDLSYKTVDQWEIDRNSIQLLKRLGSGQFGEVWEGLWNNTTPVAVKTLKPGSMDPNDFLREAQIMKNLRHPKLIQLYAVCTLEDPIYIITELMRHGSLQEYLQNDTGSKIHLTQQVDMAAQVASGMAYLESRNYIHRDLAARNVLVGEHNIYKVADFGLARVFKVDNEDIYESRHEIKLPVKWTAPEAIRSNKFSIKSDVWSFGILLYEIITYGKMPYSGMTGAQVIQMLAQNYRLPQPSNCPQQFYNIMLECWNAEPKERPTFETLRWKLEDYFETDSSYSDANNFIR
PIK3CA (human), P42336 [E542K], sequence (P42336 whole entry E542K, looked up): as the sequence (P42336 whole entry C420R, looked up) above, with R420C, E542K counted along it

`CNC(=O)c1cc(Oc2ccc(NC(=O)Nc3ccc(Cl)c(C(F)(F)F)c3)cc2)cc[n+]1[O-]` was tested, and the per cent of control [1] was 21%, the per cent of control (EGFR (human)) was 75% and the per cent of control [2] was 96%. The per cent of control (FRK (human)) was 1.8%, the per cent of control [3] was 2.6% and the per cent of control (MAPK15 (human)) was 0.6%. For the same compound, the per cent of control (MYLK3 (human)) was 2.8%, the per cent of control (NTRK3 (human)) was 0.35% and the per cent of control (PAK2 (human)) was 93%. It also gave a per cent of control [4] of 40%, a per cent of control [5] of 100% and a per cent of control [6] of 100%. The per cent of control (RPS6KA5 KD2 (human)) was 81% and the per cent of control (TIE1 (human)) was 0.3%.

From the kinase profiling compilation of Christmann-Franck et al. (2016)
